# Test results: US7842802B2, “Vinorelbine derivatives” (priority 2003, dated 2010)
# Read-outs that look alike come from different tables or passages of the source.
# Assays:
# [1] = tested on: MCF-7 human breast carcinoma line; assay: MCF-7 GI50 determination (crystal violet); assay type: cell-based; details: MCF-7, 4 days of treatment, crystal violet, read-out: MCF-7 Cells GI50
# Description: Growth inhibition (GI50) values were measured on the human breast carcinoma line, MCF-7. MCF-7 cells were plated at 2×10^4 cells/well in 96 well plates and grown for 24 hours in drug free media. On day 2, test compounds were added to the plates at 10-fold dilutions. Four days later, cells were fixed by the addition of glutaraldehyde to 0.75%. After 30 min, the fixed cells were extensively rinsed with distilled water and dried at room temperature for one hour. The cells were then stained with a 0.2% crystal violet solution for one hour at room temperature. Unbound stain was removed by ten rinses with tap water and plates were allowed to air dry for 30 min. The crystal violet was then solubilized by the addition of 10% acetic acid for 15 min and quantified by measuring absorbance at 570 nm on a Molecular Devices microplate reader. Growth inhibition was calculated according to the following equation: GI=[…], where the optical density (OD) of the test well after 4 days of treatment was T, the OD of the wells in the control plate on day 0 was T0. Plots of percent growth inhibition versus inhibitor concentration were used to determine the GI50.
# [2] = tested on: HS 578T; assay: NCI 60-cell line growth inhibition assay, HS 578T; assay type: cell-based, human; details: Breast
# Text: (§1) The following data in Table 4 summarize the growth inhibition properties of several compounds of the present invention against 60-human transformed cell lines.
# [3] = tested on: MCF7; assay: NCI 60-cell line growth inhibition assay, MCF7; assay type: cell-based, human; details: Breast
# Text: as §1
# [4] = tested on: MDA-MB-231/ATCC; assay: NCI 60-cell line growth inhibition assay, MDA-MB-231/ATCC; assay type: cell-based, human; details: Breast
# Text: as §1
# [5] = tested on: MDA-MB-435; assay: NCI 60-cell line growth inhibition assay, MDA-MB-435; assay type: cell-based, human; details: Breast
# Text: as §1
# [6] = tested on: NCI/ADR-RES; assay: NCI 60-cell line growth inhibition assay, NCI/ADR-RES; assay type: cell-based, human; details: Breast
# Text: as §1
# [7] = tested on: SF-268; assay: NCI 60-cell line growth inhibition assay, SF-268; assay type: cell-based, human; details: CNS
# Text: as §1
# [8] = tested on: SF-295; assay: NCI 60-cell line growth inhibition assay, SF-295; assay type: cell-based, human; details: CNS
# Text: as §1
# [9] = tested on: SF-539; assay: NCI 60-cell line growth inhibition assay, SF-539; assay type: cell-based, human; details: CNS
# Text: as §1
# [10] = tested on: SNB-75; assay: NCI 60-cell line growth inhibition assay, SNB-75; assay type: cell-based, human; details: CNS
# Text: as §1
# [11] = tested on: U251; assay: NCI 60-cell line growth inhibition assay, U251; assay type: cell-based, human
# Text: as §1
# [12] = tested on: HCT-15; assay: NCI 60-cell line growth inhibition assay, HCT-15; assay type: cell-based, human; details: Colon
# Text: as §1
# [13] = tested on: HT29; assay: NCI 60-cell line growth inhibition assay, HT29; assay type: cell-based, human
# Text: as §1
# [14] = tested on: KM12; assay: NCI 60-cell line growth inhibition assay, KM12; assay type: cell-based, human; details: Colon
# Text: as §1
# [15] = tested on: SW-620; assay: NCI 60-cell line growth inhibition assay, SW-620; assay type: cell-based, human; details: Colon
# Text: as §1
# [16] = tested on: CCRF-CEM; assay: NCI 60-cell line growth inhibition assay, CCRF-CEM; assay type: cell-based, human; details: Leukemia
# Text: as §1
# [17] = tested on: HL-60(TB); assay: NCI 60-cell line growth inhibition assay, HL-60(TB); assay type: cell-based, human; details: Leukemia
# Text: as §1
# [18] = tested on: K-562; assay: NCI 60-cell line growth inhibition assay, K-562; assay type: cell-based, human
# Text: as §1
# [19] = tested on: RPMI-8226; assay: NCI 60-cell line growth inhibition assay, RPMI-8226; assay type: cell-based, human
# Text: as §1
# [20] = tested on: SR; assay: NCI 60-cell line growth inhibition assay, SR; assay type: cell-based, human; details: Leukemia
# Text: as §1
# [21] = tested on: LOX IMVI; assay: NCI 60-cell line growth inhibition assay, LOX IMVI; assay type: cell-based, human; details: Melanoma
# Text: as §1
# [22] = tested on: M14; assay: NCI 60-cell line growth inhibition assay, M14; assay type: cell-based, human; details: Melanoma
# Text: as §1
# [23] = tested on: MALME-3M; assay: NCI 60-cell line growth inhibition assay, MALME-3M; assay type: cell-based, human; details: Melanoma
# Text: as §1
# [24] = tested on: SK-MEL-2; assay: NCI 60-cell line growth inhibition assay, SK-MEL-2; assay type: cell-based, human; details: Melanoma
# Text: as §1
# [25] = tested on: UACC-257; assay: NCI 60-cell line growth inhibition assay, UACC-257; assay type: cell-based, human; details: Melanoma
# Text: as §1
# [26] = tested on: UACC-62; assay: NCI 60-cell line growth inhibition assay, UACC-62; assay type: cell-based, human; details: Melanoma
# Text: as §1
# [27] = tested on: A549/ATCC; assay: NCI 60-cell line growth inhibition assay, A549/ATCC; assay type: cell-based, human; details: Non-Small Cell Lung
# Text: as §1
# [28] = tested on: HOP-62; assay: NCI 60-cell line growth inhibition assay, HOP-62; assay type: cell-based, human; details: Non-Small Cell Lung
# Text: as §1
# [29] = tested on: HOP-92; assay: NCI 60-cell line growth inhibition assay, HOP-92; assay type: cell-based, human; details: Non-Small Cell Lung
# Text: as §1
# [30] = tested on: NCI-H226; assay: NCI 60-cell line growth inhibition assay, NCI-H226; assay type: cell-based, human; details: Non-Small Cell Lung
# Text: as §1
# [31] = tested on: NCI-H23; assay: NCI 60-cell line growth inhibition assay, NCI-H23; assay type: cell-based, human; details: Non-Small Cell Lung
# Text: as §1
# [32] = tested on: NCI-H460; assay: NCI 60-cell line growth inhibition assay, NCI-H460; assay type: cell-based, human; details: Non-Small Cell Lung
# Text: as §1
# [33] = tested on: NCI-H522; assay: NCI 60-cell line growth inhibition assay, NCI-H522; assay type: cell-based, human; details: Non-Small Cell Lung
# Text: as §1
# [34] = tested on: IGROV1; assay: NCI 60-cell line growth inhibition assay, IGROV1; assay type: cell-based, human
# Text: as §1
# [35] = tested on: OVCAR-8; assay: NCI 60-cell line growth inhibition assay, OVCAR-8; assay type: cell-based, human; details: Ovarian
# Text: as §1
# [36] = tested on: DU-145; assay: NCI 60-cell line growth inhibition assay, DU-145; assay type: cell-based, human; details: Prostate
# Text: as §1
# [37] = tested on: PC-3; assay: NCI 60-cell line growth inhibition assay, PC-3; assay type: cell-based, human; details: Prostate
# Text: as §1
# [38] = tested on: ACHN; assay: NCI 60-cell line growth inhibition assay, ACHN; assay type: cell-based, human; details: Renal
# Text: as §1
# [39] = tested on: RXF 393; assay: NCI 60-cell line growth inhibition assay, RXF 393; assay type: cell-based, human; details: Renal
# Text: as §1
# [40] = tested on: SN12C; assay: NCI 60-cell line growth inhibition assay, SN12C; assay type: cell-based, human; details: Renal
# Text: as §1
# [41] = tested on: TK-10; assay: NCI 60-cell line growth inhibition assay, TK-10; assay type: cell-based, human; details: Renal
# Text: as §1
# [42] = tested on: UO-31; assay: NCI 60-cell line growth inhibition assay, UO-31; assay type: cell-based, human; details: Renal
# Text: as §1
molecule,measurement,setting,value
11′-bromovinorelbine [Example 1],GI50,[1],3 nM
same,GI50,[2],679 nM
same,GI50,[3],< 10 nM
same,GI50,[4],< 10 nM
same,GI50,[5],< 10 nM
same,GI50,[6],152 nM
same,GI50,[7],< 10 nM
same,GI50,[8],< 10 nM
same,GI50,[9],< 10 nM
same,GI50,[10],15100 nM
same,GI50,[11]; CNS,< 10 nM
same,GI50,[12],< 10 nM
same,GI50,[13]; Colon,< 10 nM
same,GI50,[14],< 10 nM
same,GI50,[15],< 10 nM
same,GI50,[16],< 10 nM
same,GI50,[17],< 10 nM
same,GI50,[18]; Leukemia,< 10 nM
same,GI50,[19],< 10 nM
same,GI50,[19]; Leukemia,< 10 nM
same,GI50,[20],> 100000 nM
same,GI50,[21],< 10 nM
same,GI50,[22],< 10 nM
same,GI50,[23],53.6 nM
same,GI50,[24],< 10 nM
same,GI50,[25],5730 nM
same,GI50,[26],< 10 nM
same,GI50,[27],< 10 nM
same,GI50,[28],< 10 nM
same,GI50,[29],1240 nM
same,GI50,[30],< 10 nM
same,GI50,[31],< 10 nM
same,GI50,[32],< 10 nM
same,GI50,[33],< 10 nM
same,GI50,[34]; Ovarian,< 10 nM
same,GI50,[35],< 10 nM
same,GI50,[36],< 10 nM
same,GI50,[37],< 10 nM
same,GI50,[38],3230 nM
same,GI50,[39],10300 nM
same,GI50,[40],< 10 nM
same,GI50,[41],< 10 nM
same,GI50,[42],< 10 nM
"CCC1=C[C@H]2CN(C1)Cc1c([nH]c3ccc(I)cc13)[C@@](C(=O)OC)(c1cc3c(cc1OC)N(C)[C@H]1[C@@](O)(C(=O)OC)[C@H](OC(C)=O)C4C(CC)=CCN5CC[C@]31[C@H]45)C2 (stereo partly shown) [Example 2, 11′-iodovinorelbine]",GI50,"[1]; Homo sapiens, MCF7, 96 h",7 nM
same,GI50,[2]; Homo sapiens,19.2 nM
same,GI50,[3]; Homo sapiens,11.3 nM
same,GI50,[4]; Homo sapiens,77.2 nM
same,GI50,[5]; Homo sapiens,1370 nM
same,GI50,[6]; Homo sapiens,5280 nM
same,GI50,[7]; Homo sapiens,78.8 nM
same,GI50,[8]; Homo sapiens,27 nM
same,GI50,[9]; Homo sapiens,37.9 nM
same,GI50,[10]; Homo sapiens,40.4 nM
same,GI50,"[11]; Homo sapiens, U-251, CNS",42.3 nM
same,GI50,[12]; Homo sapiens,1070 nM
same,GI50,"[13]; Homo sapiens, HT-29, Colon",10.3 nM
same,GI50,[14]; Homo sapiens,92.7 nM
same,GI50,[15]; Homo sapiens,37.8 nM
same,GI50,[16]; Homo sapiens,37.9 nM
same,GI50,[17]; Homo sapiens,71 nM
same,GI50,"[18]; Homo sapiens, K562, Leukemia",12.4 nM
same,GI50,"[19]; Homo sapiens, Leukemia",16.7 nM
same,GI50,[20]; Homo sapiens,26.1 nM
same,GI50,[21]; Homo sapiens,31.3 nM
same,GI50,[22]; Homo sapiens,> 100000 nM
same,GI50,[23]; Homo sapiens,65 nM
same,GI50,[24]; Homo sapiens,1400 nM
same,GI50,[25]; Homo sapiens,3430 nM
same,GI50,[26]; Homo sapiens,25.6 nM
same,GI50,[27]; Homo sapiens,58.6 nM
same,GI50,[28]; Homo sapiens,37 nM
same,GI50,[29]; Homo sapiens,2250 nM
same,GI50,[30]; Homo sapiens,83.3 nM
same,GI50,[31]; Homo sapiens,52.8 nM
same,GI50,[32]; Homo sapiens,43.2 nM
same,GI50,[33]; Homo sapiens,< 10 nM
same,GI50,"[34]; Homo sapiens, IGROV-1, Ovarian",32.4 nM
same,GI50,[35]; Homo sapiens,51.7 nM
same,GI50,[36]; Homo sapiens,25.7 nM
same,GI50,[37]; Homo sapiens,57.3 nM
same,GI50,[38]; Homo sapiens,1430 nM
same,GI50,[39]; Homo sapiens,60.5 nM
same,GI50,[40]; Homo sapiens,70.8 nM
same,GI50,[41]; Homo sapiens,298 nM
same,GI50,[42]; Homo sapiens,674 nM
